Test results as given in ChEMBL document CHEMBL1150662, “A new digalactosyl diacylglycerol from a cultured marine dinoflagellate Heterocapsa circularisquama” (J Nat Prod, 2002).

Experiment: Cytotoxicity against oysters heart cells at 0.5 ug/ml
Assay type: cell-based
Conditions: ostreidae

Row | Structure (SMILES) | Activity
1 | CC/C=C\C/C=C\C/C=C\C/C=C\C/C=C\CC(=O)OC[C@H](CO[C@@H]1O[C@H](CO)[C@H](O)[C@H](O)[C@H]1O)OC(=O)C/C=C\C/C=C\C/C=C\C/C=C\C/C=C\CC | Toxic
2 | CC/C=C\C/C=C\C/C=C\C/C=C\C/C=C\CC(=O)OC[C@H](CO[C@@H]1O[C@H](CO[C@H]2O[C@H](CO)[C@H](O)[C@H](O)[C@H]2O)[C@H](O)[C@H](O)[C@H]1O)OC(=O)CCCC/C=C\C/C=C\C/C=C\C/C=C\CC | Toxic
3 | CC/C=C\C/C=C\C/C=C\C/C=C\C/C=C\CC(=O)OC[C@H](CO[C@@H]1O[C@H](CO)[C@H](O)[C@H](O)C1O)OC(=O)CCCC/C=C\C/C=C\C/C=C\C/C=C\CC (single isomer, unassigned) | Toxic
